Test results published in paper PMC13408441, “Molecular regulation and physiological role of GOLPH3-mediated Golgi retention” (Nature Communications, 2026).

Columns and labels:
[1] = tested on: GOLPH3; test: Click-PEG metabolic labeling of GOLPH3 S-acylation; assay type: cell-based, human; details: HeLa, 4 hours
Method: Cells are washed twice with serum-free medium with 1 mg/ml BSA and incubated indicated times with either 100 µM palmitic acid azide or 100uM unlabeled palmitic acid (control). Cells are washed 3 times with cold PBS and lysed in 50 mM Tris-HCl (pH 8.0) and 0.5% SDS. Cell lysates are subjected to click reaction with 5 kDa mPEG-Alkyne, CuSO4, TBTA and ascorbic acid for 1 h at room temperature. Samples are boiled with 4x SDS with BME sample buffer, and analyzed by WB on reducing condition on 4–20% SDS-PAGE gels.

[2] = tested on: PI4KIIIβ; test: GOLPH3 Golgi localization upon PtdIns(4)P depletion by PIK93; assay type: cell-based, human; details: 1 h
Method: Immunofluorescence and confocal microscopy
HeLa GOLPH3-KO cells transfected with the different GOLPH3 constructs were plated at approximately 50% confluency post-transfection. Cells were washed with PBS, fixed in 4% paraformaldehyde (PFA) for 20 minutes, washed with PBS, quenched with 50 mM NH4Cl for 10 minutes, and washed again with PBS. Cells were permeabilized with 0.05% saponin in PBS for 5 minutes. Subsequently, cells were washed and blocked with 3% BSA and 0.05% saponin in PBS for 30 minutes. Primary antibodies (anti-GOLPH3 and anti-GM130) and secondary antibodies were diluted in the same buffer. After blocking, coverslips were washed and incubated with primary antibodies overnight at 4 °C, washed in PBS, and incubated for 45 minutes with secondary antibodies. Cells were then washed and stained with Hoechst for nuclear visualization. Finally, coverslips were mounted in Prolong Glass Antifade Mountant.
Images were acquired using a Zeiss LSM 980 Inverted microscope with a 63X objective, a pinhole size of 1 AU and at least 2 line-averaging or alternatively using Oympus Evident FV4000. Super-resolution images were taken using Zeiss LSM980 with Airyscan2 module, with 63×oil-immersion objectives. Images were processed using Fiji (ImageJ). Cis-to-trans Golgi linescans were recorded using the “Color Profiler” plugin (Color_Profiler. jar, https://imagej.nih.gov/ij/plugins/color -profiler.html) in Fiji software. […]
Figure S5. GOLPH3 regulation by S-acylation
A. Immunofluorescence analysis of GOLPH3 Golgi localization upon acute PtdIns(4)P depletion.
GOLPH3-KO HeLa cells expressing CERT-GFP (cyan) or GOLPH3 variants (yellow) were treated with increasing concentrations of PIK93 for 1 h. Golgi localization, assessed by colocalization with GM130 (magenta), is highlighted in the insets. Scale bar, 5 µm. […]

[3] = CD thermal denaturation of GOLPH3 proteins; assay type: physicochemical, human; details: CD at 207 nm, 20 to 95 °C at 1 °C/min, 10 μM protein, 100 mM NaCl, 50 mM Tris pH 7.4, 1 mM TCEP
Method: (§1) Supplemental Material for Theodoropoulou, Nasrallah, et al 2026
Isothermal titration calorimetry
Isothermal titration calorimetry (ITC) experiments were performed on a MicroCal PEAQ-ITC (Malvern Panalytical), with GOLPH3 variants being in a buffer containing 250 mM NaCl, 50 mM Tris pH 8.0 and 1 mM TCEP. LCS peptides were synthesised and delivered as lyophilised powder (Genscript). The peptides were dissolved in the protein buffer and their concentrations were calculated based upon their absorbance at 280 nm and their corresponding molar extinction coefficient. Experiments consisted of titrations of a single 0.4 µL injection followed […]
GOLPH3 proteins at a 100 μM concentration. Experiments were performed at 25 °C in triplicate (n = 3), with injection duration of 4 s, injection spacing of 150 s, stir speed of 750 rpm, and reference power of 7 μcal/s. Data were processed and plotted using MicroCal PEAQ‐ITC Analysis Software and fitted to a one‐site binding model.
(§2) Circular Dichroism Spectroscopy
(§3) Circular Dichroism Spectra of GOLPH3 proteins (at 10 μM in 100 mM NaCl, 50 mM Tris pH 7.4 and 1 mM TCEP) were collected with a Chirascan V100 (AppliedPhotophysics), using a 1 mm path length cuvette, at 20 °C, in the 200-260 nm range. Thermal denaturation experiments […]
(§4) every 1 °C, with a temperature ramp speed of 1 °C/min and an equilibration time of […]

[4] = CD secondary structure of GOLPH3 proteins (BestSel fits); assay type: physicochemical, human; details: 10 μM, 100 mM NaCl, 50 mM Tris pH 7.4, 1 mM TCEP, 20 °C
Method: as §1
Isothermal titration calorimetry […]
as §2, §3, §4
Table S2: Fits of CD spectra to fractions of secondary structure for Golph3 WT and various mutants of it, carried out with the BestSel server

[5] = SEC-MALS of GOLPH3 constructs; assay type: physicochemical, human; details: 12 mg/mL, 250 mM NaCl, 50 mM Tris pH 8.0, 1 mM TCEP
Method: Supplemental Material for Theodoropoulou, Nasrallah, et al 2026 buffer. Pooled fractions were concentrated to the required concentration using a MWCO concentrator (Millipore) with a cutoff of 10 kDa.
Size exclusion chromatography coupled to multi-angle light scattering
The molecular weights of the tested constructs were determined by size exclusion chromatography coupled to multi-angle light scattering (SEC-MALS). The mass measurements were performed on a UltiMate3000 HPLC system equipped with a 3 angles miniDAWN TREOS static light scattering detector (Wyatt Technology). The sample volumes of 5−10 μl at a concentration of 12 mg/mL, were applied to a Superdex 200 5/150 GL column (Cytiva) previously equilibrated with 250 mM NaCl, 50 mM Tris pH 8.0, 1 mM TCEP at a flow rate of 0.08 mL/min. The data were analyzed using the ASTRA 6.1 software package (Wyatt technology), using the absorbance at 280 nm and the theoretical extinction coefficient for concentration measurements.
Nuclear Magnetic Resonance (NMR) Spectroscopy
All proteins used for NMR experiments were designed on the GOLPH3-4G background due to its higher stability and solubility. Recombinant proteins were prepared with the isotope enrichment scheme appropriate for each experiment (i.e. 15N-only or 15N, 13C) in 20 mM MES buffer pH 6.5 with 250 mM NaCl and 10% 2H2O. Lower salt, even by 10%, yielded much degraded spectra. […]

## COc1ccc(N2CCN(C(=O)c3cc4c(s3)-c3ccccc3S(=O)(=O)C4)CC2)cc1 [ML349]
[1]; 10 µM
  click-PEG signal upon ML348/ML349: increased the click-PEG signal

## CC(=O)Nc1nc(C)c(-c2ccc(Cl)c(S(=O)(=O)NCCO)c2)s1 [PIK93]
[2]; CERT-GFP, HeLa
  effect of PIK93 on localization of CERT: completely relocate CERT to the cytosol
[2]; GOLPH3-KO HeLa expressing C84A
  effect of PIK93 on Golgi localization of GOLPH3-C84A: sensitive to PIK93
[2]; GOLPH3-KO HeLa expressing GOLPH3 WT, increasing PIK93 concentrations, versus CERT
  effect of PIK93 on Golgi localization of GOLPH3 WT: significantly more resistant to PtdIns(4)P depletion
[2]; GOLPH3-KO HeLa expressing R90L
  effect of PIK93 on Golgi localization of GOLPH3-R90L: insensitive to PIK93
[2]; GOLPH3-KO HeLa
  effect of PIK93 on Golgi localization of GOLPH3 mutated at Cys108 and Cys122: strongly Golgi-associated, PIK93-insensitive form

## CCCCCCCCCC[C@@H]1C(=O)O[C@H]1CCc1ccc(OC)c(OC)c1 [Palmostatin B]
[1]; 50 µM
  click-PEG signal upon Palmostatin B: increased the click-PEG signal

## GOLPH3 WT: recombinant human GOLPH3 (Q9H4A6, residues 52-298)
[3]
  Tm / melting temperature: 52.5 °C
[4]
  % alpha: 41%
  % beta parallel: 0%
  % beta-antiparallel: 7%
  % others: 36%
  % turn: 16%
[5]
  oligomeric state: monomeric
